Data published in BindingDB's records for patent US20250059194 (Michigan State University, 2025).
pIC50: −log10 of the molar value.

Molecular target: T1, Serine/threonine-protein kinase ULK2 (Homo sapiens, UniProt Q8IYT8)
T1 sequence (Q8IYT8 whole entry): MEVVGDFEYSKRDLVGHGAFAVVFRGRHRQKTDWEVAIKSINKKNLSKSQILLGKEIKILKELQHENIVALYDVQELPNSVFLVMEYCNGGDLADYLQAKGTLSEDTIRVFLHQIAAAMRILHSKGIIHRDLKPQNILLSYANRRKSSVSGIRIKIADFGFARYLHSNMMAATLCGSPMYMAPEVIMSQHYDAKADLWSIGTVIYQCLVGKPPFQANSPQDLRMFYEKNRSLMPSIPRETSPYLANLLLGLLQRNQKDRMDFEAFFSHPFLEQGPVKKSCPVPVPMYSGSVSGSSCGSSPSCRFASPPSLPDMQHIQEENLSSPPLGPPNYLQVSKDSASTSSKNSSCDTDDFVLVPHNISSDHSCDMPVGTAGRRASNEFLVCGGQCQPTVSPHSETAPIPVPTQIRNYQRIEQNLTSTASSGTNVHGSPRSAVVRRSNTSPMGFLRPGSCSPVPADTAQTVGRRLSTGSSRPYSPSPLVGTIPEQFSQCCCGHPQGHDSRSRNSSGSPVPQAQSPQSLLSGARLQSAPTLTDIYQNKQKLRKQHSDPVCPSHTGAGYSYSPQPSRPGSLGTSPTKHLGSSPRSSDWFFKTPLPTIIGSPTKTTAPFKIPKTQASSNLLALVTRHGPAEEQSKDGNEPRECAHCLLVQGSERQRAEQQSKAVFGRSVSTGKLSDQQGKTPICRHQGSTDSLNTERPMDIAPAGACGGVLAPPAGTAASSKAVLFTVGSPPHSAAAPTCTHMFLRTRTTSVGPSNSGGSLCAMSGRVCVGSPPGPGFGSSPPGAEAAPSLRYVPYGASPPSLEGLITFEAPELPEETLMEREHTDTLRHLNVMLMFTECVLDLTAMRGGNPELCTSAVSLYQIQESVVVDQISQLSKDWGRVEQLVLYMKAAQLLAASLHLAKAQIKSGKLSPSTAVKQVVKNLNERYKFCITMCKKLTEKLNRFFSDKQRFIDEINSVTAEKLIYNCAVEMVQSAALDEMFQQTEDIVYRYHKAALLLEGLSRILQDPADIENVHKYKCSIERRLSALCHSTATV
Assay: Not found
Source text: Not found

pIC50: 6.49
Structure (SMILES): CCC(CC)NC(=O)c1cc(-c2cnn3cc(N4CCNCC4)cnc23)cs1 [US20250059194, Example Table 1.9]
